Reference: patent US7718687B2, “Prodrugs of mitotic kinesin inhibitors” (Merck Sharp & Dohme Corp.,, priority 2004, dated 2010)

Molecular target: T1, human KSP motor domain (KSP(367H)) (Homo sapiens, UniProt P52732)
T1 construct: were used to amplify the motor domain and the neck linker region; made in house; host or cells: E. coli BL21 (DE3), vector pRSETa
T1 sequence (P52732 18-359 limits assumed): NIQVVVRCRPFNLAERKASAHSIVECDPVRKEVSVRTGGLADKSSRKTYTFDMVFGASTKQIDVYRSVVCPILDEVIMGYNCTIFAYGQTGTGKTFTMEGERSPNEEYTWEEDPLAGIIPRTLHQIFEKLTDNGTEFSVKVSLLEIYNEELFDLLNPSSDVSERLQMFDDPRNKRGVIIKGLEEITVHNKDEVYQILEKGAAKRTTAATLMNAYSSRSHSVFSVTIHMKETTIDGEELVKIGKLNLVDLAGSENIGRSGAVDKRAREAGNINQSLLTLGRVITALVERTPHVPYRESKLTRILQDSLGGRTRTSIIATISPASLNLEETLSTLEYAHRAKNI
Test: Kinesin ATPase In Vitro Assay
Assay type: biochemical
Settings: enantiomers of 1-5 resolved on Chiralpak AD; assay not stated
Excerpt: I. Kinesin ATPase In Vitro Assay
Cloning and Expression of Human Poly-Histidine Tagged KSP Motor Domain (KSP(367H))
Plasmids for the expression of the human KSP motor domain construct were cloned by PCR using a pBluescript full length human KSP construct (Blangy et al., Cell, vol. 83, pp 1159-1169, 1995) as a template. The N-terminal primer 5′-[…] (SEQ.ID.NO.: 1) and the C-terminal primer 5′-[…] […] (SEQ.ID.NO.: 2) were used to amplify the motor domain and the neck linker region. The PCR products were digested with AseI and XhoI, ligated into the NdeI/XhoI digestion product of pRSETa (Invitrogen) and transformed into E. coli BL21 (DE3).
Cells were grown at 37° C. to an OD600 of 0.5. […]
The kinesin motor domain is incubated with microtubules, 1 mM ATP (1:1 MgCl2: Na-ATP), and compound at 23° C. in buffer containing 80 mM K-HEPES (pH 7.0), 1 mM EGTA, 1 mM DTT, 1 mM MgCl2, and 50 mM KCl. […] Free phosphate from the ATP hydrolysis reaction is measured via a quinaldine red/ammonium molybdate assay by adding a […] of quench C (e.g., to a mixture of 40 μl reaction volume+40 μl stop buffer is then added 120 μl quench C). […] Quench C is a 2:1 ratio of quench A:quench B The reaction is incubated for 5-10 minutes at 23° C., and the absorbance of the phospho-molybdate complex is measured at 540 nm.

Structure (SMILES): CC(=O)N1N=C(c2cc(F)ccc2F)C[C@@]1(CCCO)c1ccccc1 (single isomer, unassigned; isomer 3) [(S) isomer]
- activity of resolved enantiomer (active / inactive): active
